Entries after “also recorded” stand apart in the source; their conditions may differ.
Legend:
[1] = Human blood serum stability at 37 °C (gradient HPLC); assay type: in vitro ADME; conditions: freshly prepared human blood serum, over 120 min
Experimental: FIG. 17: Human serum blood stability of [^99mTc]FEB054. […] Blood serum stability was tested in freshly prepared human blood serum at 37° C. Samples were taken after 10, 20, 30, 60, 90 and 120 minutes and analysed using a gradient HPLC system. 5 MBq of [^99mTc]FEB054 in 20 μL PBS buffer was added to 200 μL of a freshly prepared human blood serum sample and incubated at 37° C. After 10, 20, 30, 60, 90 and 120 minutes, 20 μL were separated and diluted with 50 μL dichloromethane and 50 μL methanol. After centrifugation, 10 μL of the solution were analyzed via gradient-HPLC using a Knauer system with two Smartline 1000 pumps, Smartline UV detector 2500 (Herbert Knauer GmbH), a GabiStar γ-detector (Raytest lsotopenmessgeräte GmbH) and a reversed phase C18 column (Nucleosil 100-5 C-18 column 4.6 mm×250 mm). Eluent A: water (0.1% TFA). Eluent B: Methanol (0.1% TFA). […]
Blood serum stability was tested in freshly prepared human blood serum at 37° C. […] Samples were taken after 10, 20, 30, 60, 90 and 120 minutes and analysed using a gradient HPLC system. […] After centrifugation, 10 μl of the solution were analysed via gradient-HPLC using a Knauer system with two Smartline1000 pumps, Smartline UV-detector 2500 (Herbert Knauer GmbH), a GabiStar γ-detector (Raytest lsotopenmessgeräte GmbH) and a reverse phase […] column 4.6 mm×250 mm). […]

[2] = Biodistribution and elimination of [99mTc]FEB054 in healthy Balb/c mice (SPECT/CT); assay type: in vivo
Experimental: FIG. 18: Biodistribution (A) and elimination (B) of [^99mTc]FEB054 in healthy Balb/c mice. The tracer was intravenously injected at a dose of 62 MBq per mouse. The tracer accumulation and elimination was measured 0-90 min post injection.
Mice were injected and scanned under isoflurane/oxygen inhalation anaesthesia (1.4-1.8% isoflurane, 0.5 l O2/min). All animals were injected with a target dose of 2.5 MBq/g body weight) and a total injection volume ≤150 μl. For the image acquisition we used a NanoSPECT/CT-Plus preclinical camera (Mediso Medical Imaging Systems; Hungary), a 4-head gamma camera equipped with multi-pinhole collimators and a cone beam CT imaging system. In the shown studies we employed 9 pinholes/head with a diameter of 1.0 mm and a field of view of 30 mm×16 mm. 10 projections/scan and 60 seconds/projection resulting in a minimum of 100 kcounts/projection (in order to achieve high quality images with high statistics) were acquired. At the end of the SPECT measurement a CT scan was performed (same FOV as the SPECT scan) (55 kVp; 180 projections/rotation; 500 ms exposure time and 1 mm pitch with constant statistics). Data analysis was performed by CT based definitions of regions-of-interest and quantitative mesurements are expressed as kBq/mL.

S100A9 [3] = target: T1, S100A9 (Mus musculus, UniProt P31725); experiment: Irritant contact dermatitis (ICD) mouse model, SPECT/CT; assay type: in vivo, mice; conditions: 66 MBq per mouse i.v.
T1 construct: from tissue; host or cells: living mice (inflamed ear, joints) and explanted mouse heart, aorta and lungs
T1 sequence (P31725 2-113 limits assumed): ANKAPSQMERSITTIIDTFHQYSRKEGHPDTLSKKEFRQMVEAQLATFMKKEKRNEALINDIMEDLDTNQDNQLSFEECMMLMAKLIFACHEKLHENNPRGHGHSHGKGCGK
Experimental: FIG. 19: Accumulation of [^99mTc]FEB054 in the inflamed ear and muscle in a mouse model of contact dermatitis (ICD). The tracer was intravenously in a mouse model of contact dermatitis of the left ear in WT mice (=inflamed, right hand side) at a dose of 66 MBq per mouse and measured 0-60 min post injection.
Mice were injected and scanned under isoflurane/oxygen inhalation anaesthesia (1.4-1.8% isoflurane, 0.5 l O2/min). All animals were injected with a target dose of 2.5 MBq/g body weight) and a total injection volume ≤150 μl. […] Data analysis was performed by CT based definitions of regions-of-interest and quantitative mesurements are expressed as kBq/mL.
ICD was induced by the application of 20 μl 1% croton oil in olive oil-acetone (1:4) to the ventral surface of the left ear of mice for 24 h (n=5 per group), whereas the right ear served as a control. […] In the Cy7 channel the quantum yield is much lower compared to the Cy5.5 channel, which means that the recorded signal with Cy5.5-CES271 is higher than compared to […] (right image; FIG. 21). […] The labelling efficacy (dye/antibody ratio) was determined on the basis of ultraviolet-spectra of the purified dye-antibody compound using PBS as a reference buffer. […]

S100A9 [4] = target: T1, S100A9; experiment: Collagen induced arthritis mouse model, SPECT/CT; assay type: in vivo, DBA/1j mice; conditions: 55 MBq per mouse i.v.
Experimental: FIG. 20: Accumulation of [^99mTc]FEB054 in a mouse model of collagen induced arthritis. The tracer was intravenously injected at a dose of 55 MBq per mouse. […] The tracer distribution was measured in vivo 60 min post injection using SPECT/CT.
Induction and imaging of CIA: Arthritis was induced in DBA/1j mice by injection of bovine collagen type II. Bovine collagen type II (bCII, MD Biosciences) was dissolved in 0.05 M acetic acid at a concentration of 2 mg/ml. DBA/1j mice were injected subcutaneously at the tail base with 100 μg bCII emulsified in CFA (Difco) and boostered on day 21 with 100 μg bCII in IFA at the same location. Mice were regularly inspected from day 14 after disease induction and scored for swelling, erythema and deformation of each joint three times a week. Imaging was performed after arthritis was clinically detectable in the majority of treated animals at indicated time points after tracer application of either Cy5.5-CES271 or [99mTc]FEB054.
SPECT/CT imaging of inflamed joints was recorded 1 h after iv injection of [99mTc]FEB054 (55 MBq of [99mTc]FEB054 per mouse). Individual feet of the mice were analysed separately according to the histological score. […] Even single affected joints could be clearly identified.

Substance: fac-[^99mTc(CO)3(5-ethyl-4-hydroxy-1-methyl-N-{1-(1-methyl-1H-imidazol-2-yl)-2-[(1-methyl-1H-imidazol-2-yl)methyl]-5,8,11-trioxa-2-azatridecan-13-yl}-2-oxo-N-phenyl-1,2-dihydroquinoline-3-carboxamide)]^+ [[^99mTc]FEB054]
- Human blood serum stability (decomposition) [1]: very good; also recorded: no decomposition
- Accumulation of the tracer in the liver and intestines ([2]; 62 MBq per mouse i.v.): intensive accumulation
- Time of hepato-biliary elimination ([2]; 62 MBq per mouse i.v.): ≤ 20 min
- Route of elimination ([2]; 62 MBq per mouse i.v., 0-90 min post injection): predominant hepato-biliary elimination
- Tracer availability in the blood ([2]; 62 MBq per mouse i.v., first 10 minutes): good tracer availability in the blood
- Blood half-life ([2]; mouse, in vivo): suitable
- Tracer uptake in the inflamed ear compared to the healthy control ear (S100A9 [3]; 45 minutes post injection): higher tracer uptake
- Uptake ratios inflamed ear versus blood and muscle (S100A9 [3]; dynamic imaging 0-60 min post injection): increasing uptake ratios
- Correlation of SPECT signal with clinical scoring (S100A9 [4]; 1 h after injection): excellent correlation
- Tracer accumulation in inflamed joints of the hind limbs versus healthy control mouse (S100A9 [4]; 60 min post injection): tracer accumulation in the inflamed joints
- Tracer accumulation in liver, intestines, kidneys and urinary bladder (S100A9 [4]; 60 min post injection): intensive tracer accumulation

From US10350315B2, “Quinoline-3-carboxamide compounds and their use in diagnosis” (Westfaelische Wihelms-Universitaet Muenster, priority 2014, dated 2019)
